Laboratory results taken from patent US20260191998A1, “INDOLE PHTHALOCYANINE COMPOUND, PREPARATION METHOD THEREFOR, AND USE THEREOF IN TUMOR DIAGNOSIS IMAGING” (JIANGSU YAHONG MEDITECH CO., LTD., priority 2022, published 2026).
Counter-ions that a name gives are not always drawn.

Assay: UV-VIS absorption spectra (optical property test)
Assay type: physicochemical
Conditions: 10 μM, DMSO solution; for Absorbance × 10^4: at maximum absorption peak
Protocol: The UV-VIS absorption spectra of the compounds (10 μM, DMSO solution) were detected using Shimadzu UV2600 spectrophotometer, and the maximum absorption peak and absorbance of each compound were obtained.

Row | Structure (SMILES) | Absorption peak [nm] | Absorbance × 10^4
1 | C[N+]1=C(/C=C/C2=C(Cl)C(=C/C=C3/N(CCCCCC(=O)Nc4ccccc4)c4ccccc4C3(C)C)/CC2)C(C)(C)c2ccccc21 [Example 83, 2-((E)-2-((E)-2-chloro-3-(2-((E)-3,3-dimethyl-1-(6-oxo-6-(anilino)hexyl)indol-2-methylene)ethylidene)cyclopent-1-en-1yl)ethenyl)-1,3,3-trimethyl-3H-indol-1-ium Chloride] | 820 | 3.079
2 | C[N+]1=C(/C=C/C2=C(Cl)C(=C/C=C3/N(CCOCCOCCOCc4ccccc4)c4ccccc4C3(C)C)/CCC2)C(C)(C)c2ccccc21 [Example 56, 2-((E)-2-((E)-3-(2-((E)-1-(2-(2-(2-(benzyloxy)ethoxy)ethoxy)ethyl)-3,3-dimethylindolin-2-ylidene)ethenyl)-2-chlorocyclohex-1-en-1-yl)ethenyl)-1,3,3-trimethyl-3H-indol-1-ium 2,2,2-trifluoroacetate] | – | 1.85
3 | C[N+]1=C(/C=C/C2=C(Cl)C(=C/C=C3/N(CCCCCC(=O)O)c4ccccc4C3(C)C)/CCC2)C(C)(C)c2cc(C(=O)O)ccc21 [Example 119, 5-carboxy-2-((E)-2-((E)-3-(2-((E)-1-(5-carboxypentyl)-3,3-dimethylindolin-2-ylidene)ethenyl)-2-chlorocyclohex-1-en-1-yl)ethenyl)-1,3,3-trimethyl-3H-indol-1-ium 2,2,2-trifluoroacetate] | – | 1.52
4 | CC[N+]1=C(/C=C/C2=C(OC)C(=C/C=C3/N(CCCCCC(=O)Oc4ccccc4)c4ccccc4C3(C)C)/CCC2)C(C)(C)c2ccccc21 [Example 104] | 781.5 | 2.054
5 | CN1C(=O)/C(=C\C2=C(Cl)C(=C/C=C3/N(CCCCC(=O)Oc4ccccc4)c4ccccc4C3(C)C)/C[N+](C)(C)C2)c2ccccc21 [Example 38] | 584 | 0.364
6 | CCN1/C(=C/C=C2\CCCC(/C=C/C3=[N+](CC)c4ccccc4C3(C)C)=C2Sc2ccccc2)C(C)(C)c2ccccc21.[Cl-] [Example 108] | 805.5 | 1.752
7 | CC[N+]1=C(/C=C/C2=C(Cl)C(=C/C=C3/N(CCCCCC(=O)NCCCCCNC(=O)CCCCCN4/C(=C/C=C5\CCCC(/C=C/C6=[N+](CC)c7ccccc7C6(C)C)=C5Cl)C(C)(C)c5ccccc54)c4ccccc4C3(C)C)/CCC2)C(C)(C)c2ccccc21 [Example 77, 2,2′-((1E,1′E)-((3E,3′E)-(((2E,2′E)-((pentane-1,5-diylbis(azanediyl))bis(6-oxohexane-6,1-diyl))bis(3,3-dimethylindolin-1-yl-2-ylidene))bis(ethane-2,1-diylidene))bis(2-chlorocyclohex-1-en-1-yl-3-ylidene))bis(ethene-2,1-diyl))bis(1-ethyl-3,3-dimethyl-3H-indol-1-ium) Chloride] | 794.5 | 4.344
8 | CC1(C)C(/C=C/C2=C(Cl)C(=C/C=C3/N(CCCCCC(=O)O)c4ccccc4C3(C)C)/C[N+](C)(C)C2)=[N+](CCCCCC(=O)O)c2ccccc21 [Example 25] | 767.5 | 2.265
9 | CC1(C)C(/C=C/C2=C(Cl)C(=C/C=C3/N(CCCCCC(=O)Oc4ccccc4)c4ccccc4C3(C)C)/C[N+](C)(C)C2)=[N+](CCCCCC(=O)Oc2ccccc2)c2ccccc21 [Example 14, 2-((E)-2-((E)-4-chloro-5-(2-((E)-3,3-dimethyl-1-(6-oxo-6-phenoxyhexyl)indolin-2-ylidene)ethenyl)-1,1-dimethyl-1,2,5,6-tetrahydropyridin-1-ium-3-yl)ethenyl)-3,3-dimethyl-1-(6-oxo-6-phenoxyhexyl)-3H-indol-1-ium Dichloride] | 767.5 | 1.71
10 | CN(C)C1CC(/C=C/C2=[N+](C)c3ccccc3C2(C)C)=C(Cl)C(=C/C=C2/N(CCCCCC(=O)Oc3ccccc3)c3ccccc3C2(C)C)/C1 (centres unmarked) [Example 50, 2-((E)-2-((E)-2-chloro-3-(2-((E)-3,3-dimethyl-1-(6-oxo-6-phenoxyhexyl)indolin-2-ylidene)ethenyl)-5-(dimethylamino)cyclohex-1-en-1-yl)ethenyl)-1,3,3-trimethyl-3H-indol-1-ium Formate] | – | 1.97
11 | COc1ccc2c(c1)C(C)(C)C(/C=C/C1=C(Cl)C(=C/C=C3/N(CCCCCC(=O)Oc4ccccc4)c4ccc(OC)cc4C3(C)C)/CCC1)=[N+]2C [Example 47, 2-((E)-2-((E)-2-chloro-3-(2-((E)-5-methoxy-3,3-dimethyl-1-(6-oxo-6-phenoxyhexyl)indolin-2-ylidene)ethenyl)cyclohex-1-en-1-yl)ethenyl)-5-methoxy-1,3,3-trimethyl-3H-indol-1-ium] | – | 2

Other lines, results leading:

Row | Absorption peak [nm] | Absorbance × 10^4 | Structure (SMILES)
12 | 797.5 | 2.44 | CC1(C)C(/C=C/C2=C(Cl)C(=C/C=C3/N(CCCCCC(=O)Nc4ccccc4)c4ccccc4C3(C)C)/CCC2)=[N+](CCCCS(=O)(=O)O)c2ccccc21 [Example 26, 2-((E)-2-((E)-2-chloro-3-(2-((E)-3,3-dimethyl-1l-(6-oxo-6-(phenylamino)hexyl)indolin-2-ylidene)ethenyl)cyclohex-1-en-1-yl)ethenyl)-3,3-dimethyl-1-(4-sulfonylbutyl)-3H-indo-1-ium Formate]
13 | – | 2.45 | CC[N+]1=C(/C=C/C2=C(Br)C(=C/C=C3/N(CCCCCC(=O)O)c4ccccc4C3(C)C)/CCC2)C(C)(C)c2ccccc21.[Cl-] [Example 96]
14 | – | 1.75 | Cc1cccc(C)c1OC(=O)CCCCC[N+]1=C(/C=C/C2=C(Cl)C(=C/C=C3/N(CCCCCC(=O)O)c4ccccc4C3(C)C)/CC2)C(C)(C)c2ccccc21 [Example 88, 2-((E)-2-((E)-3-(2-((E)-1-(5-carboxypentyl)-3,3-dimethylindolin-2-ylidene)ethenyl)-2-chlorocyclopent-1-en-1-yl)ethenyl)-1-(6-(2,6-dimethylphenoxy)-6-oxohexyl)-3,3-dimethyl-3H-indol-1-ium Acetate]
15 | – | 2.46 | CC[N+]1=C(/C=C/C2=C(Oc3ccc(C#N)cc3)C(=C/C=C3/N(CCCCCC(=O)Oc4c(C)cccc4C)c4ccccc4C3(C)C)/CCC2)C(C)(C)c2ccccc21 [Example 114]
16 | – | 0.93 | CC[N+]1=C(/C=C/C2=C(Cl)C(=C/C=C3/N(CCCCCC(=O)Oc4ccccc4)c4ccccc4C3(C)C)/CCC2)C(C)(C)c2cc(S(C)(=O)=O)ccc21 [Example 40, 2-((E)-2-((E)-2-chloro-3-(2-((E)-3,3-dimethyl-1-(6-oxo-6-phenoxyhexyl)indolin-2-ylidene)ethenyl)cyclohex-1-en-1-yl)ethenyl)-1-ethyl-3,3-dimethyl-5-(methylsulfonyl)-3H-indol-1-ium Chloride]
17 | 794.5 | 2.118 | CC[N+]1=C(/C=C/C2=C(Cl)C(=C/C=C3/N(CCOCCCCC(=O)Oc4ccccc4)c4ccccc4C3(C)C)/CCC2)C(C)(C)c2ccccc21 [Example 37A, 2-((E)-2-((E)-2-chloro-3-(2-((E)-3,3-dimethyl-1-(2-((5-oxo-5-phenoxypentyl)oxy)ethyl)indolin-2-ylidene)ethenyl)cyclohex-1-en-1-yl)ethenyl)-1-ethyl-3,3-dimethyl-3H-indol-1-ium 2,2,2-trifluoroacetate]
